Experimental data reported in patent US9376425B2, “Heterocyclic compounds as MDM2 inhibitors for the treatment of cancer” (AMGEN INC., priority 2011, dated 2016).

The molecules below were run against T1, human MDM2 (GST-hMDM2 1-188), interaction with biotinylated-p53 (1-83) (Homo sapiens, UniProt Q00987) (assay: improved HTRF assay (HTRF2 assay), inhibition of HDM2-p53 interaction). Conditions: 0.2 nM GST-hMDM2, 0.5 nM biotinylated-p53, 100 mM KF.
T1 construct: Amino acid residues 1-188 of human MDM2 were expressed; made in house; host or cells: Escherichia coli
Type: binding
In short: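 Time-resolved fluorescence (HTRF) read after >4 h equilibration with SA-XLent/anti-GST cryptate/KF detection reagents. Reaction: compound plus GST-hMDM2 for 20 min at room temperature, then E. coli-expressed biotinylated p53 residues 1-83 for 60 min, 2% DMSO final. Inhibition expressed versus nutlin-3.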

T1 sequence (Q00987 1-188): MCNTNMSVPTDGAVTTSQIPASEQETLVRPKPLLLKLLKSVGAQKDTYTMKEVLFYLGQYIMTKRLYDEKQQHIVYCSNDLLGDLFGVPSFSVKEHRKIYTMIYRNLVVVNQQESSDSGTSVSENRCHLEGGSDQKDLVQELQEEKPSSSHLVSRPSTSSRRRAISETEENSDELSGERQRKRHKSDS

SMILES	IC50 [nM]
C[C@@H](CSC(C)(C)C)N1C(=O)CO[C@H](c2cccc(Cl)c2)[C@H]1c1ccc(Cl)cc1 [Example 222, (5R,6R)-4-((S)-1-(tert-butylthio)propan-2-yl)-6-(3-chlorophenyl)-5-(4-chlorophenyl)morpholin-3-one]	170
CN(C(C)(C)C)S(=O)(=O)C[C@H](C1CC1)N1C(=O)[C@@H](CC(=O)O)O[C@H](c2cccc(Cl)c2)[C@H]1c1ccc(Cl)cc1 (single isomer, unassigned) [Example 300, 2-((2R,5R,6R)-4-((S)-2-(N-(tert-Butyl)-N-methylsulfamoyl)-1-cyclopropylethyl)-6-(3-chlorophenyl)-5-(4-chlorophenyl)-3-oxomorpholin-2-yl)acetic acid or 2-((2S,5R,6R)-4-((S)-2-(N-(tert-butyl)-N-methylsulfamoyl)-1-cyclopropylethyl)-6-(3-chlorophenyl)-5-(4-chlorophenyl)-3-oxomorpholin-2-yl)acetic acid]	< 1
CC[C@@H](CS(=O)(=O)C(C)(C)C)N1C(=O)[C@@H](CC(=O)O)O[C@H](c2cccc(Cl)c2)[C@@]1(C)c1ccc(Cl)cc1 (single isomer, unassigned) [Example 162, 2-((2R,5R,6R)-4-((S)-1-(tert-butylsulfonyl)butan-2-yl)-6-(3-chlorophenyl)-5-(4-chlorophenyl)-5-methyl-3-oxomorpholin-2-yl)acetic acid or 2-((2S,5R,6R)-4-((S)-1-(tert-butylsulfonyl)butan-2-yl)-6-(3-chlorophenyl)-5-(4-chlorophenyl)-5-methyl-3-oxomorpholin-2-yl)acetic acid]	6250
CC(C)[C@@H](CS(=O)(=O)C(C)(C)C)N1C(=O)[C@@H](CC(=O)O)O[C@H](c2cccc(Cl)c2)[C@H]1c1ccc(Cl)c(F)c1 (single isomer, unassigned) [Example 313]	38
C[C@@H](CS(=O)(=O)C(C)(C)C)N1C(=O)[C@H](CC(=O)N2CCOCC2)O[C@H](c2cccc(Cl)c2)[C@H]1c1ccc(Cl)cc1 (single isomer, unassigned) [Example 235, (2S,5R,6R)-4-((S)-1-(tert-butylsulfonyl)propan-2-yl)-6-(3-chlorophenyl)-5-(4-chlorophenyl)-2-(2-morpholino-2-oxoethyl)morpholin-3-one or (2R,5R,6R)-4-((S)-1-(tert-butylsulfonyl)propan-2-yl)-6-(3-chlorophenyl)-5-(4-chlorophenyl)-2-(2-morpholino-2-oxoethyl)morpholin-3-one]	11
CC(C)(C)S(=O)(=O)C[C@H](C1CC1)N1C(=O)[C@@H](CC(=O)Nc2ccccc2)O[C@H](c2cccc(Cl)c2)[C@H]1c1ccc(Cl)cc1 (single isomer, unassigned) [Example 350, 2-((2R,5R,6R)-4-((S)-2-(tert-Butylsulfonyl)-1-cyclopropylethyl)-6-(3-chlorophenyl)-5-(4-chlorophenyl)-3-oxomorpholin-2-yl)-N-phenylacetamide or 2-42S,5R,6R)-4-((S)-2-(tert-butylsulfonyl)-1-cyclopropylethyl)-6-(3-chlorophenyl)-5-(4-chlorophenyl)-3-oxomorpholin-2-yl)-N-phenylacetamide]	16
CC(C)(C)S(=O)(=O)C[C@H](C1CC1)N1C(=O)[C@@H](CC(=O)Nc2ccccc2F)O[C@H](c2cccc(Cl)c2)[C@H]1c1ccc(Cl)cc1 (single isomer, unassigned) [Example 352, 2-((2R,5R,6R)-4-((S)-2-(tert-Butylsulfonyl)-1-cyclopropylethyl)-6-(3-chlorophenyl)-5-(4-chlorophenyl)-3-oxomorpholin-2-yl)-N-(2-fluorophenyl)acetamide or 2-((2S,5R,6R)-4-((S)-2-(tert-butylsulfonyl)-1-cyclopropylethyl)-6-(3-chlorophenyl)-5-(4-chlorophenyl)-3-oxomorpholin-2-yl)-N-(2-fluorophenyl)acetamide]	25
